Values after ≈ are worked out from the molar mass of the structure shown. Read-outs that look alike come from different tables or passages of the source. No end group written: not given here.
Tests used:
[1] = system: Bacteroides fragilis JCM 11019
[2] = system: Actinobacillus actinomycetemcomitans JCM2434
[3] = system: Alternaria alternata JCM5800; settings: JCM5800
[4] = system: Fusobacterium nucleatum JCM 11025
[5] = system: Acinetobacter baumanni JCM6841; settings: JCM6841
[6] = system: Trichophyton rubrum NBRC9185; settings: NBRC9185
Fusarium solani JCM11383 = settings: JCM11383
[7] = system: Bacillus subtilis NBRC3134; settings: NBRC3134
[8] = system: Salmonella enteritidis IID 604; settings: IID 604
[9] = system: Escherichia coli ATCC 25922; test: ATP Assay (viability at 3 hours), Table 6; assay type: cell-based; settings: for Escherichia coli ATP (viability, relative value to negative control): 3 h, 5 μg/mL
Experimental: (§1) Bacteria (Escherichia coli ATCC 25922, Pseudomonas aeruginosa ATCC 27853, Staphylococcus aureus ATCC29213, and Staphylococcus epidermidis JCM 2414) were inoculated to Mueller-Hinton broth: MHB or LB medium, and cultured at a temperature and period suited for each strain. From the thus obtained colonies, each strain was inoculated to a fresh liquid medium and cultured for 16 to 20 hours. Then an aliquot having a volume (10 to 50 μL) appropriate to each strain was inoculated to a fresh liquid medium and cultured for 4 to 6 hours, followed by the measurement of the absorbance at 600 nm. After comparing the turbidity with McFarland #0.5, the resultant was diluted with a medium. Each strain was added to about 10^5 CFU/mL (final concentration).
(§2) Each of the peptide solutions to be tested was diluted with the medium to obtain a solution of 10 μg/mL. As positive controls, tobramycin (TOB), oxacillin (OX) and meropenem (MEPM) were used. By dilution with sterilized purified water to 1.0 mg/mL, positive control-containing media having concentrations of […], respectively for TOB; 0.5, 0.12 and 0.06 μg/mL, respectively, for OX; and 1.0, 0.25, 0.12, 0.06, 0.03 and 0.008 μg/mL respectively, for MEPM, were prepared. To a 96-well microtiter plate, 0.1 mL of the inoculation solution and 0.1 mL of the peptide- or positive control-containing medium having the respective concentration were added, and cultured at 37° C. for 3 hours. The well not containing the sample was used as a negative control. After the culturing, ATP was measured using BacTiter-Glo Microbial Cell Viability Assay kit of PROMEGA, and compared with that in the negative control to obtain a relative value which was defined as a viability. The antibacterial activity was evaluated based on the viability at 3 hours later using ATP as an index.
(§3) The medium used in this test for bacteria was Mueller-Hinton broth. Independent experiments were carried out twice for each strain.

[10] = system: Staphylococcus aureus ATCC29213; test: ATP Assay (viability at 3 hours), Table 6; assay type: cell-based; settings: for Staphylococcus aureus ATP (viability, relative value to negative control): 3 h, 5 μg/mL
Experimental: as §1, §2, §3

[11] = system: Pseudomonas aeruginosa ATCC 27853; test: ATP Assay (viability at 3 hours), Table 6; assay type: cell-based; settings: for Pseudomonas aeruginosa ATP (viability, relative value to negative control): 3 h, 5 μg/mL
Experimental: as §1, §2, §3

[12] = system: Escherichia coli ATCC 25922; test: microbe, parasite or virus in culture; assay type: cell-based; settings: Table 4; two tests, first/second value where not identical
Experimental: (§4) Bacteria (Escherichia coli ATCC 25922, Pseudomonas aeruginosa ATCC 27853, Staphylococcus aureus ATCC29213, Klebsiella pneumoniae JCM 1662, Enterobacter cloacae JCM 1232, Enterobacter aerogenes JCM 1235 and Staphylococcus epidermidis JCM 2414) were inoculated to Mueller-Hinton broth: MHB or LB medium, and cultured at a temperature and period suited for each strain. From the thus obtained colonies, each strain was inoculated to a fresh liquid medium and cultured for 16 to 20 hours. Then an aliquot having a volume (10 to 50 appropriate to each strain was inoculated to a fresh liquid medium and cultured for 4 to 6 hours, followed by the measurement of the absorbance at 600 nm. After comparing the turbidity with McFarland #0.5, the resultant was diluted with a medium. Each strain was added to about 10^5 CFU/mL (final concentration). Each of the peptide solutions to be tested was diluted with MHB to obtain a solution of 128 μg/mL. […] As controls, tobramycin (TOB: aminoglucoside antibiotic), oxacillin (OX:β-lactam antibiotic), meropenem (MEPM: carbapenem antibiotic) and ciprofloxacin (new quinolone antibiotic) were used. […] To a 96-well microtiter plate, 0.1 mL of the inoculation solution and 0.1 mL of the peptide- or positive control-containing medium having the respective concentration were added, and cultured at 37° C. for 16 to 24 hours (or a time period suited for the growth of the respective strain). The well not containing the sample was used as a negative control. After the culturing, the growth was visually observed, and the minimum concentration at which the growth was inhibited was defined as the minimum growth inhibition concentration (MIC). The medium used in this test for bacteria was Mueller-Hinton broth. Independent experiments were carried out twice or more for each strain.

[13] = system: Staphylococcus aureus ATCC29213; test: microbe, parasite or virus in culture; assay type: cell-based
Experimental: as §4

[14] = system: Staphylococcus epidermidis JCM 2414; test: microbe, parasite or virus in culture; assay type: cell-based; settings: for MIC Staphylococcus epidermidis: JCM 2414
Experimental: as §4

[15] = system: Pseudomonas aeruginosa ATCC 27853; test: microbe, parasite or virus in culture; assay type: cell-based
Experimental: as §4

[16] = system: Salmonella typhimurium JCM1652
[17] = system: Trichophyton mentagrophytes NBRC6124; settings: NBRC6124
[18] = system: Streptococcus pyogenes JCM5674
[19] = system: Micrococcus luteus NBRC13867
[20] = system: methicillin-sensitive Staphylococcus (MSSA) MSSA(i); test: organism not typed; settings: read-out: MIC MSSA(i)
Experimental: as §1, with “ATCC29213, Klebsiella pneumoniae JCM 1662, Enterobacter cloacae JCM 1232, Enterobacter aerogenes JCM 1235” for “ATCC29213,”, “50” for “50 μL)”
(§5) Further, the antibacterial activities against the clinical strains collected and isolated from infected patients were also examined. The tests were carried out for two methicillin-resistant Staphylococcus (MRSA) (MRSA (i) and (ii)), two methicillin-sensitive Staphylococcus (MSSA) (MSSA (i) and (ii)), five Pseudomonas aeruginosa, Pseudomonas aeruginosa 1, Pseudomonas aeruginosa 6, Pseudomonas aeruginosa 8. Pseudomonas aeruginosa 9 and Pseudomonas aeruginosa 12, totally 9 clinical strains. The MRSA and MSSA clinical strains were tested by the same method as Staphylococcus aureus ATCC29213, and Pseudomonas clinical strains were tested by the same method as Pseudomonas aeruginosa ATCC 27853.
(§6) Each of the peptide solutions to be tested was diluted with MHB to obtain a solution of 128 μg/mL. This solution was serially diluted with the medium to prepare peptide-containing media having concentrations of 128, 64, 32, 16, 8.0, 4.0 and 2.0 μg/mL respectively. […] By dilution with sterilized purified water to 1.0 mg/mL, positive control-containing media having concentrations of 16, 8, 4, 2, 1.0, 0.25, 0.12 and 0.06 μg/mL, respectively for TOB; 0.5, 0.12 and 0.06 μg/mL, respectively, for OX; and 16, 8, 4, 2, 1.0, 0.25, 0.12, 0.06, 0.06, 0.03 and 0.008 μg/mL, respectively, for MEPM, were prepared.
(§7) To a 96-well microtiter plate, 0.1 mL of the inoculation solution and 0.1 mL of the peptide- or positive control-containing medium having the respective concentration were added, and cultured at 37° C. for 16 to 24 hours (or a time period suited for the growth of the respective strain). The well not containing the sample was used as a negative control. After the culturing, the growth was visually observed, and the minimum concentration at which the growth was inhibited was defined as the minimum growth inhibition concentration (MIC).
(§8) The medium used in this test for bacteria was Mueller-Hinton broth. Independent experiments were carried out twice or more for each strain.

[21] = system: methicillin-resistant Staphylococcus (MRSA) MRSA(ii); test: organism not typed; settings: read-out: MIC MRSA(ii)
Experimental: as §1, with “ATCC29213, Klebsiella pneumoniae JCM 1662, Enterobacter cloacae JCM 1232, Enterobacter aerogenes JCM 1235” for “ATCC29213,”, “50” for “50 μL)”
as §5, §6, §7, §8

[22] = system: methicillin-resistant Staphylococcus (MRSA) MRSA(i); test: organism not typed; settings: read-out: MIC MRSA(i)
Experimental: as §1, with “ATCC29213, Klebsiella pneumoniae JCM 1662, Enterobacter cloacae JCM 1232, Enterobacter aerogenes JCM 1235” for “ATCC29213,”, “50” for “50 μL)”
as §5, §6, §7, §8

[23] = system: methicillin-sensitive Staphylococcus (MSSA) MSSA(ii); test: organism not typed; settings: read-out: MIC MSSA(ii)
Experimental: as §1, with “ATCC29213, Klebsiella pneumoniae JCM 1662, Enterobacter cloacae JCM 1232, Enterobacter aerogenes JCM 1235” for “ATCC29213,”, “50” for “50 μL)”
as §5, §6, §7, §8

[24] = Table 4, two tests, first/second value where not identical

Compound | MIC Bacteroides fragilis [1, 24] | MIC Actinobacillus actinomycetemcomitans [2] | MIC Alternaria alternata [3] | MIC Fusobacterium nucleatum ([4]; JCM 11025) | MIC Acinetobacter baumanni [5] | MIC Trichophyton rubrum [6] | MIC Candida krusei (Candida krusei NBRC1395; NBRC1395) | MIC Fusarium solani (Fusarium solani JCM11383) | MIC Bacillus subtilis [7] | MIC Salmonella Enteritidis [8] | Escherichia coli ATP (viability, relative value to negative control) [9] | Staphylococcus aureus ATP (viability, relative value to negative control) [10] | Pseudomonas aeruginosa ATP (viability, relative value to negative control) [11] | MIC Escherichia coli [12] | MIC Staphylococcus epidermidis [14] | MIC Pseudomonas aeruginosa ([15]; ATCC 27853) | MIC Salmonella Typhimurium ([16]; JCM1652) | MIC Trichophyton mentagrophytes [17] | MIC Streptococcus pyogenes [18] | MIC Micrococcus luteus [19] | further results
Ac-GRLKRMGERLKRKIQKWIRW-NH2 [SRP-19] | 16/8 | 64 µg/mL | 64 µg/mL | 4 µg/mL | 32 µg/mL | 64 µg/mL | 16 µg/mL | 16 µg/mL | 2 µg/mL | 4 µg/mL | 2.9 | 2.1 | 1.6 | 8/16 | 8 µg/mL | 8 µg/mL | 4 µg/mL | 32 µg/mL | 16 µg/mL | 2 µg/mL | MIC Staphylococcus aureus ([13]; ATCC29213): 8 µg/mL
Cc1onc(-c2ccccc2)c1C(=O)N[C@@H]1C(=O)N2[C@@H]1SC(C)(C)[C@@H]2C(=O)O [oxacillin, reference compound] |  |  |  |  |  |  |  |  |  |  |  |  |  |  |  |  |  |  |  |  | MIC [20]: 8 µg/mL (≈ 19.9 µM); MIC [21]: > 8000 µg/mL; MIC [22]: < 4000 µg/mL; MIC [23]: 2 µg/mL (≈ 4.98 µM); viability at 10 µg/mL ([9]; ATCC25922, 3 h, read-out: Escherichia coli ATP (viability, relative value to negative control)): 142%; viability at 10 µg/mL ([10]; ATCC29213, 3 h, read-out: Staphylococcus aureus ATP (viability, relative value to negative control)): 121%; viability at 10 µg/mL ([11]; ATCC27853, 3 h, read-out: Pseudomonas aeruginosa ATP (viability, relative value to negative control)): 100%; MIC ([13]; Staphylococcus aureus, ATCC29213, read-out: MIC Staphylococcus aureus, Table 4, two tests, first/second value where not identical): 0.15 to 0.5 µg/mL (≈ 0.374 to 1.25 µM); MIC ([14]; Staphylococcus epidermidis, JCM2414, read-out: MIC Staphylococcus epidermidis, Table 4, two tests, first/second value where not identical): 0.15 to 0.5 µg/mL (≈ 0.374 to 1.25 µM)
GRLKRMGERLKRKIQKLIRL-NH2 [SRP-21] |  | 32 µg/mL | 64 µg/mL | 4 µg/mL | 32 µg/mL | 128 µg/mL | 32 µg/mL | 16 µg/mL | 2 µg/mL | 2 µg/mL | 3.7 | 1.8 | 3.8 | 16/32 | 8000 to 16000 µg/mL | 8 µg/mL | 2 µg/mL | 64 µg/mL | 8 µg/mL | 1 µg/mL | MIC Bacteroides fragilis ([1]; JCM 11019): 16 µg/mL; MIC Staphylococcus aureus [13, 24]: 8/32
Ac-GRLKRMGKRLKRKIQKWARW-NH2 [SRP-18] | 64/32 | 64 µg/mL | 32 µg/mL |  | 32 µg/mL | 32 µg/mL |  | 8 µg/mL | 2 µg/mL | 2 µg/mL | 1.7 | 2.0 | 1.5 | 8/16 | 8 µg/mL |  |  | 16 µg/mL | 16 µg/mL | 1 µg/mL | MIC Fusobacterium nucleatum [4, 24]: 32/16; MIC Candida krusei (Candida krusei NBRC1395; [24]): 32/16; MIC Staphylococcus aureus [13, 24]: 8/16; MIC Pseudomonas aeruginosa [15, 24]: 4/8; MIC Salmonella Typhimurium [16, 24]: 4/2

Source: patent publication US8470765B2, “Polypeptides and antibacterial or antiseptic use of same” (AnGes MG, Inc., priority 2009, dated 2013)
